According to patent publication US7462625B2, “Gonadotropin-releasing hormone receptor antagonists and methods relating thereto” (Neurocrine Biosciences, Inc., priority 2000, dated 2008):
Where a name gives a salt, the structure may show the parent alone.

Target: T1, GnRH receptor (Homo sapiens, UniProt P30968)
T1 construct: expressed in transfected cells
T1 sequence (P30968 1-328): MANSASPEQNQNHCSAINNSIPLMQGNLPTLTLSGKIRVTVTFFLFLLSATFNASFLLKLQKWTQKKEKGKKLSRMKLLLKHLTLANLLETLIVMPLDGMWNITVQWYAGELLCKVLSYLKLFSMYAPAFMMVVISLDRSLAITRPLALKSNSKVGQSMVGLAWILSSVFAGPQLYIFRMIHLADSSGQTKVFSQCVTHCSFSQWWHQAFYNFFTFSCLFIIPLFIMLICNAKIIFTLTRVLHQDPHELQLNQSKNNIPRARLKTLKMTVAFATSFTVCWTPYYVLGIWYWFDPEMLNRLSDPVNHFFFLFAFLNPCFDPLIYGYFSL
Assay: GnRH receptor membrane binding assay
Conditions: GnRH receptor membrane binding assay, [125I]-labeled GnRH peptide; read-out: Ki
Procedure: Radio-Iodination of GnRH Peptide
The GnRH analog is labeled by the chloramine-T method. […] The reaction is stopped by the addition of 60 μg sodium metabisulfite and the free iodine is removed by passing the iodinated mixture through a C-8 Sep-Pak cartridge (Millipore Corp., Milford, Mass.). The peptide is eluted with a small volume of 80% acetonitrile/water. […] The purified radioactive peptide is stored in 0.1% BSA/20% acetonitrile/0.1% TFA at −80° C. and can be used for up to 4 weeks.
GnRH Receptor Membrane Binding Assay
Cells stably, or transiently, transfected with GnRH receptor expression vectors are harvested, resuspended in 5% sucrose and homogenized using a polytron homogenizer (2×15 sec). Nucleii are removed by centrifugation (3000×g for 5 min.), and the supernatant centrifuged (20,000×g for 30 min, 4° C.) to collect the membrane fraction. The final membrane preparation is resuspended in binding buffer (10 mM Hepes (pH 7.5), 150 mM NaCl, and 0.1% BSA) and stored at −70° C. Binding reactions are performed in a Millipore MultiScreen 96-well filtration plate assembly with polyethylenimine coated GF/C membranes. […] The reaction is terminated after 90 minutes by application of vacuum and washing (2×) with phosphate buffered saline. Bound radioactivity is measured using 96-well scintillation counting (Packard Topcount) or by removing the filters from the plate and direct gamma counting. Ki values are calculated from competition binding data using non-linear least squares regression using the Prism software package (GraphPad Software).

Row | Structure (SMILES) | Ki
1 | COc1cccc(-c2c(C)n(Cc3c(F)cccc3F)c(=O)n(C(C)CNCc3ccccn3)c2=O)c1 (stereo not drawn) [9-402] | < 100 nM
2 | COc1cccc(-c2c(C)n(Cc3c(F)cccc3F)c(=O)n(C[C@H](C)N(C)Cc3ccccn3)c2=O)c1F [9-409] | < 100 nM
3 | COc1cccc(-c2c(C)n(Cc3c(F)cccc3F)c(=O)n(C[C@H](Cc3ccccc3)N(C)C)c2=O)c1F [9-443] | < 100 nM
4 | COc1cccc(-c2c(C)n(Cc3c(F)cccc3F)c(=O)n([C@H](C)CNCc3ccccc3F)c2=O)c1 [9-446] | < 100 nM
5 | COc1cccc(-c2c(C)n(Cc3c(F)cccc3F)c(=O)n([C@H](C)CNCc3cccc(C)c3)c2=O)c1 [9-473] | < 100 nM
6 | COc1cccc(CNC[C@@H](C)n2c(=O)c(-c3cccc(OC)c3)c(C)n(Cc3c(F)cccc3F)c2=O)c1 [9-477] | < 100 nM
7 | COc1cccc(-c2c(C)n(Cc3c(F)cccc3F)c(=O)n([C@H](C)CNCc3cccc4ccccc34)c2=O)c1F [9-502] | < 100 nM
8 | COc1cccc(-c2c(C)n(Cc3c(F)cccc3F)c(=O)n([C@H](C)CNCc3cc(Cl)ccc3O)c2=O)c1F [9-503] | < 100 nM
9 | COc1cccc(-c2c(C)n(Cc3c(F)cccc3F)c(=O)n([C@H](C)CNCc3c(F)cccc3Cl)c2=O)c1 [9-514] | < 100 nM
10 | CN[C@@H](Cc1ccccc1)Cn1c(=O)c(-c2cccc(OC)c2F)c(C)n(Cc2c(F)cccc2F)c1=O [9-517] | < 100 nM
11 | COc1cccc(-c2c(C)n(Cc3c(F)cccc3F)c(=O)n(C[C@@H](C)NCc3ccsc3)c2=O)c1F [9-570] | < 100 nM
12 | CCCCN(CCCC)[C@H](C)Cn1c(=O)c(-c2cccc(OC)c2F)c(C)n(Cc2c(F)cccc2F)c1=O [9-612] | < 100 nM
13 | COc1cccc(-c2c(C)n(Cc3c(F)cccc3F)c(=O)n(C[C@@H](C)NC(C)C(C)C)c2=O)c1F (stereo partly drawn) [9-613] | < 100 nM
14 | COc1cccc(-c2c(C)n(Cc3c(F)cccc3F)c(=O)n([C@H](C)CNCc3ccccc3C)c2=O)c1F [9-653] | < 100 nM
15 | CCc1ccc(CN[C@@H](C)Cn2c(=O)c(-c3cccc(OC)c3F)c(C)n(Cc3c(F)cccc3F)c2=O)o1 [9-665] | < 100 nM
16 | CCC(C)C(C)CN[C@@H](C)Cn1c(=O)c(-c2cccc(OC)c2F)c(C)n(Cc2c(F)cccc2F)c1=O (stereo partly drawn) [9-678] | < 100 nM
17 | CCCN(CCC)[C@@H](C)Cn1c(=O)c(-c2cccc(OC)c2F)c(C)n(Cc2c(F)cccc2F)c1=O [9-681] | < 100 nM
18 | CCC(CC(C)C)N[C@@H](C)Cn1c(=O)c(-c2cccc(OC)c2F)c(C)n(Cc2c(F)cccc2F)c1=O (stereo partly drawn) [9-688] | < 100 nM
19 | COc1cccc(-c2c(C)n(Cc3c(F)cccc3F)c(=O)n(C[C@@H](NC(C)C)C(C)C)c2=O)c1F [9-712] | < 100 nM
20 | CCN[C@H](Cn1c(=O)c(-c2cccc(OC)c2F)c(C)n(Cc2c(F)cccc2F)c1=O)C(C)C [9-714] | < 100 nM
21 | Cc1c(-c2csc(-c3ccc(F)cc3)n2)c(=O)n(C[C@H](N)c2ccccc2)c(=O)n1Cc1c(F)cccc1F [12-24] | < 100 nM
22 | CN[C@H](CC(C)C)Cn1c(=O)c(-c2cccc(OC)c2F)cn(Cc2c(F)cccc2F)c1=O [13-4] | < 100 nM
23 | CCc1c(-c2cccc(OC)c2F)c(=O)n(C[C@H](N)c2ccccc2)c(=O)n1Cc1c(F)cccc1F [15-1] | < 100 nM

Next, values leading:

Row | Ki | Structure (SMILES)
24 | < 100 nM | Cc1cccnc1CCN1CCCC1Cn1c(=O)cc(C)n(Cc2c(F)cccc2F)c1=O (stereo not drawn) [9-415]
25 | < 100 nM | COc1cccc(-c2c(C)n(Cc3c(F)cccc3F)c(=O)n([C@H](C)CNCc3cccc(F)c3)c2=O)c1 [9-448]
26 | < 100 nM | COc1cccc(-c2c(C)n(Cc3c(F)cccc3F)c(=O)n([C@H](C)CNCc3cc(C)cc(C)c3)c2=O)c1 [9-454]
27 | < 100 nM | COc1cccc(-c2c(C)n(Cc3c(F)cccc3F)c(=O)n(C[C@H](C)NCCc3ccccn3)c2=O)c1F [9-470]
28 | < 100 nM | COc1cccc(-c2c(C)n(Cc3c(F)cccc3F)c(=O)n([C@H](C)CNCc3ccc4c(c3)CCO4)c2=O)c1F [9-495]
29 | < 100 nM | COc1cccc(-c2c(C)n(Cc3c(F)cccc3F)c(=O)n([C@H](C)CNCc3c[nH]c4ccccc34)c2=O)c1F [9-509]
30 | < 100 nM | COc1cccc(-c2c(C)n(Cc3c(F)cccc3F)c(=O)n([C@H](C)CNCc3ccccn3)c2=O)c1F [9-512]
31 | < 100 nM | COc1cccc(-c2c(C)n(Cc3c(F)cccc3F)c(=O)n(CC(C)NCC3CCCCC3)c2=O)c1F (stereo not drawn) [9-589]
32 | < 100 nM | COc1cccc(-c2c(C)n(Cc3c(F)cccc3F)c(=O)n(CC(C)NCc3cc(C)c(C)o3)c2=O)c1F (stereo not drawn) [9-595]
33 | < 100 nM | COc1cccc(-c2c(C)n(Cc3c(F)cccc3F)c(=O)n(C[C@H](C)NCc3[nH]cnc3C)c2=O)c1F [9-602]
34 | < 100 nM | COc1cccc(-c2c(C)n(Cc3c(F)cccc3F)c(=O)n(CC(C)NCc3cccn3C)c2=O)c1F (stereo not drawn) [9-618]
35 | < 100 nM | COc1cccc(-c2c(C)n(Cc3c(F)cccc3F)c(=O)n(CC(C)NCc3cccs3)c2=O)c1F (stereo not drawn) [9-621]
36 | < 100 nM | COc1cccc(-c2c(C)n(Cc3c(F)cccc3F)c(=O)n(CC(C)NCc3cc(Br)cs3)c2=O)c1F (stereo not drawn) [9-622]
37 | < 100 nM | COc1ccccc1CNC[C@@H](C)n1c(=O)c(-c2cccc(C)c2F)c(C)n(Cc2c(F)cccc2F)c1=O [9-634]
38 | < 100 nM | CCOc1ccccc1CNC[C@@H](C)n1c(=O)c(-c2cccc(C)c2F)c(C)n(Cc2c(F)cccc2F)c1=O [9-636]
39 | < 100 nM | COc1cccc(-c2c(C)n(Cc3c(F)cccc3F)c(=O)n(C[C@@H](C)NCc3ccco3)c2=O)c1F [9-652]

Row | Ki | Structure (SMILES)
40 | < 100 nM | COc1cccc(-c2c(C)n(Cc3c(F)cccc3F)c(=O)n(C[C@H](C)NCc3cccn3C)c2=O)c1F [9-664]
41 | < 100 nM | COc1cccc(-c2c(C)n(Cc3c(F)cccc3F)c(=O)n(C[C@H](C)NCc3ccc(Cl)s3)c2=O)c1F [9-677]
42 | < 100 nM | COc1cccc(-c2c(C)n(Cc3c(F)cccc3F)c(=O)n(C[C@H](C)NCc3ccc(O)cc3)c2=O)c1F [9-680]
43 | < 100 nM | COc1cccc(-c2c(C)n(Cc3c(F)cccc3F)c(=O)n(C[C@H](CC(C)C)N(C)C)c2=O)c1F [9-704]
44 | < 100 nM | COc1cccc(-c2c(C)n(Cc3c(F)cccc3F)c(=O)n(C[C@@H](C(C)C)N(C)C)c2=O)c1F [9-711]
45 | < 100 nM | Cc1c(-c2ccc3c(c2)OCO3)c(=O)n(C[C@H](CO)N(CC2CC2)CC2CC2)c(=O)n1Cc1c(F)cccc1F [9-745]
46 | < 100 nM | COc1cccc(-c2c(C)n(Cc3c(F)cccc3F)c(=O)n(CC[C@@H](N)c3ccccc3)c2=O)c1 [9-774]
47 | < 100 nM | Cc1c(-c2ccccc2F)c(=O)n(C[C@H](N)c2ccccc2)c(=O)n1Cc1c(F)cccc1F [10-1, 6-Methyl-5-(2-fluorophenyl)-3-[2(R)-amino-2-phenylethyl]-1-(2,6-difluorobenzyl)uracil trifluoroacetic acid salt]
48 | < 100 nM | Cc1nc(-c2c(C)n(Cc3c(F)cccc3F)c(=O)n(C[C@H](N)c3ccccc3)c2=O)cs1 [12-1]
49 | < 100 nM | Cc1c(-c2csc(-c3ccccc3)n2)c(=O)n(C[C@H](N)c2ccccc2)c(=O)n1Cc1c(F)cccc1F [12-4]
50 | < 100 nM | Cc1c(-c2csc(Cc3ccccc3)n2)c(=O)n(C[C@H](N)c2ccccc2)c(=O)n1Cc1c(F)cccc1F [12-5]
51 | < 100 nM | COc1ccc(Nc2nc(-c3c(C)n(Cc4c(F)cccc4F)c(=O)n(C[C@H](N)c4ccccc4)c3=O)cs2)cc1 [12-10]
52 | < 100 nM | COc1ccc(Nc2nc(-c3c(C)n(Cc4c(F)cccc4F)c(=O)n(C[C@H](N)c4ccccc4)c3=O)cs2)cc1OC [12-27]
53 | < 100 nM | Cc1ccc(Nc2nc(-c3c(C)n(Cc4c(F)cccc4F)c(=O)n(C[C@H](N)c4ccccc4)c3=O)cs2)cc1 [12-32]
54 | < 100 nM | CCc1c(-c2cccc(OC)c2)c(=O)n(C[C@H](N)c2ccccc2)c(=O)n1Cc1c(F)cccc1F [15-2]
